From PMC10600185, “Development and pharmaceutical investigation of novel cervical cancer-targeting and redox-responsive melittin conjugates” (Scientific Reports, 2023)
≈ marks a conversion by molar mass, not a printed value.

Legend:
[1] = tested on: HeLa cells; experiment: ROS assay (DCFDA), HeLa; format: cell-based, human; conditions: 200 µM TBHP positive control, Ex/Em 485/535 nm, data not shown
Method: (§1) To evaluate the ROS activity of peptide/conjugates, a ROS kit (DCFDA/H2DCFDA—Cellular ROS Assay Kit, Abcam) was applied to C33A, HeLa, and Normal Skin Human Fibroblast cells. 25,000 cells/well were seeded on a flat-bottom 96-well plate and incubated at 37 °C and 5% CO2. After 24 h, the media was discarded, and the wells were washed with 1 × buffer. DCFDA was then added to wells (except for non-stained control cells) and all plates were incubated for 45 min at 37 °C and 5% CO2 in the dark. […] A positive control (TBHP) was also applied. The results were assessed using a microplate reader (Varioskan Flash, Thermo Scientific) at Ex/Em: 485/535 nm. The negative control (non-stained cells) was subtracted from the cell control and drug samples for calculation.

[2] = tested on: NSF cells; experiment: ROS assay (DCFDA), NSF; format: cell-based, human; conditions: 200 µM TBHP positive control, Ex/Em 485/535 nm, data not shown
Method: as §1

[3] = tested on: C33A cells; experiment: ROS assay (DCFDA), C33A; format: cell-based, human; conditions: 200 µM TBHP positive control, Ex/Em 485/535 nm, data not shown
Method: as §1

[4] = MTT cytotoxicity assay, NSF; format: cell-based; conditions: human, normal skin fibroblast (NSF) cells, 24 h treatment, serial dilutions 256–1 µg/mL, concentration by modified Mel peptide content, mean of three replicates
Method: (§2) C-33A ([…], ATCC), HeLa ([…], ATCC), 3T3 (CRL-1658™, ATCC), Normal Skin Fibroblast (CRL-2091™, ATCC) and MCF-7 (HTB-22™, ATCC) cell lines were cultured in complete EMEM, DMEM, DMEM, EMEM, and EMEM (containing 1% Pen/Strep antibiotic and 10% FBS), respectively. Cells from the different lines were seeded at a density of 5 × 10^4 cells/well in 100 µL medium placed in a flat-bottom 96-well plate and incubated at 5% CO2 and 37 °C. After 24 h, the medium was discarded from the 96-well plate. Serial dilutions of peptide/conjugate (i.e., 256–1 µg/mL) were prepared in triplicate in 100 µL complete medium then added onto each well and incubated at 5% CO2 and 37 °C for 24 h. The cytotoxicity was determined by MTT test (MTT, Cell Proliferation Kit, Roche) and measured at 550–690 nm on a microplate reader. The cell cytotoxicity was calculated with respect to control groups treated with only complete medium.

[5] = MTT cytotoxicity assay, 3T3; format: cell-based; conditions: mouse, 3T3 cells (embryonic fibroblasts), 24 h treatment, serial dilutions 256–1 µg/mL, concentration by modified Mel peptide content, mean of three replicates
Method: as §2

[6] = tested on: human red blood cells; experiment: Hemolytic activity; format: cell-based; conditions: human erythrocytes in tris-saline pH 7.2, 256–4 µg/mL, 37 °C, 1 h, absorbance 414 nm, triplicate
Method: 30 µL of fresh human blood was added to 10 mL of autoclaved tris-saline (10 mM tris, 150 mM NaCl, pH 7.2) and centrifuged at 1500 rpm for 5 min three times. 100 µL of the blood mix was added to each well of a round-bottom 96-well plate. Concentrations of freshly prepared peptide/conjugate (i.e., ranging from 256–4 µg/mL) in tris-saline (100 µL of total volume) were added to the 96-well plate containing the blood mix and the plate kept at 37 °C for 1 h. Triton X-100 in 10% DMSO-treated blood mix and blood mix without addition were used as positive and negative controls, respectively. Next, the plate was centrifuged for 10 min at 1500 rpm. The supernatants were taken into a new round-bottom 96-well plate and measured at 414 nm using a microplate reader. All samples were used as a triplicate.

[7] = HPLC % ACN at elution as measure of hydrophobicity; format: physicochemical; conditions: semi-preparative RP-HPLC, C-18 column; for HPLC gradient (ACN %) of the purified peak: 0–100% ACN (0.025% TFA) gradient, 30 min for FA conjugates, 40 min for Target conjugates, % ACN used as hydrophobicity
Method: The peptide/conjugate was purificated and analyzed (data not shown) using HPLC (Agilent Technologies, USA) with C-18 column (RPC 250 × 10 mm ID hydrophobic 6 µm, Agilent VariTide). For the CM–FA and MC–FA conjugates’ purification, we used a 0–100% ACN (0.025% TFA) gradient for 30 min, and for the CM–Target, and MC–Target conjugates, we used a 0–100% ACN (0.025% TFA) gradient for 40 min. Peptide methods for HPLC purification are provided in Supp. Data 1. A Nicolet iS10 FT-IR was used to obtain infrared spectra of the peptide/conjugates in the range of 4000–500 cm^−1. The chemical structure of the peptide/conjugates was characterized by proton nuclear resonance (^1H NMR) spectroscopy using a 400-MHz Burker NMR spectrometer in DMSO-d6. To evaluate the molecular weight of the synthesized peptide, LC–MS/MS (6420 Triple Quad, Agilent Technologies) was used.

[8] = tested on: cell lines; experiment: Cytotoxicity of the targeting peptide alone on the cell lines; format: cell-based; conditions: tested alone on cell lines, data not shown
Method: as §2

[9] = tested on: E. coli 25922; experiment: Minimum inhibitory concentration, E. coli; format: cell-based, Escherichia coli; design: key: No inhibitory effects were observed at any of the concentrations tested in the areas marked “X” and bacterial growth was seen; conditions: MHB, two-fold dilutions 1024–0.5 µg/mL, 37 °C overnight, OD 600 nm
Method: (§3) The MIC of the conjugates on E. coli and S. aureus were determined. 95 µL of the MHB containing serial two-fold dilutions of each peptide/conjugate were added to a round-bottom 96-well plate from a maximum concentration of 1024 µg/mL to 0.5 µg/mL. Bacterial samples were taken from an exponentially growing culture in MHB and adjusted to 1.5 × 10^6 CFU/mL. 5 µL of the prepared bacterial suspension was added to each well and incubated at 37 °C, overnight. The bacterial growth was measured using a microplate reader (Gen5 Synergy HT, Biotek) at 600 nm. Broth containing only bacteria was used as a positive control while broth without bacteria was used as a negative control.

[10] = tested on: S. aureus 25923; experiment: Minimum inhibitory concentration, S. aureus; format: cell-based, Staphylococcus aureus; design: key: No inhibitory effects were observed at any of the concentrations tested in the areas marked “X” and bacterial growth was seen; conditions: MHB, two-fold dilutions 1024–0.5 µg/mL, 37 °C overnight, OD 600 nm
Method: as §3

| Compound | IC50 at 24 h [4] [mg/L] | IC50 at 24 h [5] [mg/L] | HPLC gradient (ACN %) of the purified peak [7] | also measured |
| --- | --- | --- | --- | --- |
| CC(C)(C)OO [TBHP] | – | – | – | ROS level, HeLa [1]: 51.26 RFU; ROS level, NSF [2]: 36.46 RFU; ROS level, C33A [3]: 60.70 RFU |
| CC[C@H](C)[C@H](NC(=O)CNC(=O)[C@@H](N)CS)C(=O)NCC(=O)N[C@@H](C)C(=O)N[C@H](C(=O)N[C@@H](CC(C)C)C(=O)N[C@@H](CCCCN)C(=O)N[C@H](C(=O)N[C@@H](CC(C)C)C(=O)N[C@H](C(=O)N[C@H](C(=O)NCC(=O)N[C@@H](CC(C)C)C(=O)N1CCC[C@H]1C(=O)N[C@@H](C)C(=O)N[C@@H](CC(C)C)C(=O)N[C@H](C(=O)N[C@@H](CO)C(=O)N[C@@H](Cc1c[nH]c2ccccc12)C(=O)N[C@H](C(=O)N[C@@H](CCCCN)C(=O)N[C@@H](CCCNC(=N)N)C(=O)N[C@@H](CCCCN)C(=O)N[C@@H](CCCNC(=N)N)C(=O)N[C@@H](CCC(N)=O)C(=O)N[C@@H](CCC(N)=O)C(N)=O)[C@@H](C)CC)[C@@H](C)CC)[C@@H](C)O)[C@@H](C)O)C(C)C)C(C)C [C-Mel] | 53.4 (≈ 18.1 µM) | 84 (≈ 28.5 µM) | 77–79% | Hemotoxicity ranking among peptides/conjugates [6]: highest hemotoxicity |
| CKQNLAEG [Targeting peptide, CSP-KQ peptide (CKQNLAEG), specific to cervical squamous cell carcinoma tissue] | – | – | 53–57% | Toxicity of the peptide alone on cell lines [8]: non-toxic; Minimum inhibitory concentration, E. coli 25922 [9]: X; Minimum inhibitory concentration, S. aureus 25923 [10]: X |
| CC[C@H](C)[C@H](NC(=O)CN)C(=O)NCC(=O)N[C@@H](C)C(=O)N[C@H](C(=O)N[C@@H](CC(C)C)C(=O)N[C@@H](CCCCN)C(=O)N[C@H](C(=O)N[C@@H](CC(C)C)C(=O)N[C@H](C(=O)N[C@H](C(=O)NCC(=O)N[C@@H](CC(C)C)C(=O)N1CCC[C@H]1C(=O)N[C@@H](C)C(=O)N[C@@H](CC(C)C)C(=O)N[C@H](C(=O)N[C@@H](CO)C(=O)N[C@@H](Cc1c[nH]c2ccccc12)C(=O)N[C@H](C(=O)N[C@@H](CCCCN)C(=O)N[C@@H](CCCNC(=N)N)C(=O)N[C@@H](CCCCN)C(=O)N[C@@H](CCCNC(=N)N)C(=O)N[C@@H](CCC(N)=O)C(=O)N[C@@H](CCC(N)=O)C(N)=O)[C@@H](C)CC)[C@@H](C)CC)[C@@H](C)O)[C@@H](C)O)C(C)C)C(C)C [Mel, Melittin] | – | – | 63–72% | Hydrophobicity as % ACN at elution ([7]; ACN (0.025% TFA) gradient): 67 % ACN |
| CC[C@H](C)[C@H](NC(=O)CN)C(=O)NCC(=O)N[C@@H](C)C(=O)N[C@H](C(=O)N[C@@H](CC(C)C)C(=O)N[C@@H](CCCCN)C(=O)N[C@H](C(=O)N[C@@H](CC(C)C)C(=O)N[C@H](C(=O)N[C@H](C(=O)NCC(=O)N[C@@H](CC(C)C)C(=O)N1CCC[C@H]1C(=O)N[C@@H](C)C(=O)N[C@@H](CC(C)C)C(=O)N[C@H](C(=O)N[C@@H](CO)C(=O)N[C@@H](Cc1c[nH]c2ccccc12)C(=O)N[C@H](C(=O)N[C@@H](CCCCN)C(=O)N[C@@H](CCCNC(=N)N)C(=O)N[C@@H](CCCCN)C(=O)N[C@@H](CCCNC(=N)N)C(=O)N[C@@H](CCC(N)=O)C(=O)N[C@@H](CCC(N)=O)C(=O)N[C@@H](CS)C(N)=O)[C@@H](C)CC)[C@@H](C)CC)[C@@H](C)O)[C@@H](C)O)C(C)C)C(C)C [Mel-C] | 43.7 (≈ 14.8 µM) | 130 (≈ 44.2 µM) | 77–79% | – |
